# Laboratory results: paper PMC6718548, “Tau pathology reduction with SM07883, a novel, potent, and selective oral DYRK1A inhibitor: A potential therapeutic for Alzheimer's disease” (Aging Cell, 2019)
# pEC50, pIC50: −log10 of the molar value. Where two headings read alike, the source gives them in different places.
# What was measured:
# DYRK1a = target: T1, DYRK1a (Homo sapiens, UniProt Q13627); test: DYRK1A kinase assay (Z-Lyte / SelectScreen IC50); assay type: biochemical; conditions: Suppl. Table 2 comparison with commercially available inhibitors
# T1 construct: purchased Thermo Fisher Scientific
# GSK‐3β = target: T2, GSK‐3β (Homo sapiens, UniProt P49841); test: Kinase IC50 (SelectScreen); assay type: biochemical; conditions: Suppl. Table 2 comparison with commercially available inhibitors; read-out: Kinase IC50 GSK-3b
# T2 construct: purchased Thermo Fisher SelectScreen service
# T2 sequence (P49841 whole entry): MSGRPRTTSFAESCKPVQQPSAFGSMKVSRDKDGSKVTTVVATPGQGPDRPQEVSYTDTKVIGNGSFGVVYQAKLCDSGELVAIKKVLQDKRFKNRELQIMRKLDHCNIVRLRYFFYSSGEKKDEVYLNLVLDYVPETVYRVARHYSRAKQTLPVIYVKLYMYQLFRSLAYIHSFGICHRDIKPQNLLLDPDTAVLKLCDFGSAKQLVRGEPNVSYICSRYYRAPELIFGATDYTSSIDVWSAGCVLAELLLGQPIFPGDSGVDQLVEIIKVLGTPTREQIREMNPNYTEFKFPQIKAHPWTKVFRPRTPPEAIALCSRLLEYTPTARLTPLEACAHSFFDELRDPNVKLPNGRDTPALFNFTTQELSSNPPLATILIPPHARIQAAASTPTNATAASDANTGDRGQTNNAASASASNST
# [1] = test system: phosphorylated tau at Thr212 in HEK293T cells; test: pTau Thr212 sandwich ELISA in double-transfected HEK293T cells; assay type: cell-based, human; conditions: HEK293T co-transfected with DYRK1A and MAPT, overnight treatment, single lot, read-out: Cell assay EC50 pTau at Thr212
# Excerpt: For the generation of the DYRK1A- and MAPT-overexpressing cells, HEK293T cells were transiently transfected with DYRK1A and MAPT genes. Specifically, expression vectors pCMV6-XL4 and pCMV6-Entry expressing DYRK1A and MAPT, alongside an empty vector control (pCI, OriGene, Catalog #SC314641 and RC216166, respectively; Promega, Catalog #E1731) and the material was amplified and purified using a custom MaxiPrep service (GENEWIZ, South Plainfield, NJ).
# (§1) For ELISA assays, native SH-SY5Y cells, or transiently double-transfected HEK293T cells were dissociated by treatment with trypsin-EDTA and seeded in 96-well flat-bottom cell culturing plate before administration of 3-fold serial dilution of SM07883 overnight.
# (§2) Following compound treatment, cells were washed and lysed with 1x RIPA buffer containing phosphatase and protease inhibitors transferred to 96-well V-bottom collection plates for centrifugation and removal of insoluble material.
# The pTau Thr212 ELISA 96-well flat-bottom plates, were coated with anti-HT7 capture antibody (Catalog MN1000, Thermo Fisher, Waltham, […]) diluted 1:300 in 1X PBS at 4°C. After overnight incubation, coated plates were washed with 1× PBS containing 0.05% Tween-20 and blocked for 1hr 2% BSA (A7030-50G, Sigma-Aldrich, St. Louis, MO), then washed prior to sample loading.
# For the pTau Thr212 sandwich ELISA, cell lysates were directly transferred to the anti-HT7 capture, antibody-coated, and BSA-blocked ELISA plates for 2hrs. Supernatant was then removed, and plates were washed with 1× PBS-0.05% Tween-20, followed by addition of 100 µL per well anti-phosphorylated tau Thr212 antibody (Catalog 44-740G, Thermo Fisher) diluted 1:200 in 1× PBS for 2hrs. Plates were washed and probed with an anti-rabbit/HRP conjugate (Cell Signaling Technology, 7074S) for 1hr then washed before a TMB substrate solution (Catalog N301, Thermo Fisher) was added. When a deep blue color was observed, 100 µL per well of stop solution (Catalog N600, Thermo Fisher) was added.
# (§3) Colorimetric detection of pT212Tau or pS396Tau signal was read at 450 nm using the Cytation 3 Cell Imaging Multi-Mode Reader (BioTek, Winooski, VT). The signal was used to plot, draw the curve fitting, and determine the EC50 value for SM07883 in Prism 7 (GraphPad, La Jolla, CA).
# [2] = test system: phosphorylated tau at Ser396 in SH-SY5Y cells; test: pSer396Tau ELISA in SH-SY5Y neuroblastoma cells; assay type: cell-based, human; conditions: overnight (16 hr) treatment, single lot, read-out: Cell assay EC50 pTau at Ser396
# Excerpt: as §1, §2, §3
Compound,pIC50 (DYRK1a),pIC50 (GSK‐3β),pEC50 [1],pEC50 [2],"pEC50 ([1]; Homo sapiens, HEK-293T)",pEC50 ([2]; Homo sapiens)
COC(=N)c1nc2ccc3ncnc(Nc4ccc(Cl)cc4Cl)c3c2s1 [EHT-5372],7.08,< 5.00,5.42,5.60,–,–
"O=C(O[C@@H]1Cc2c(O)cc(O)cc2O[C@@H]1c1cc(O)c(O)c(O)c1)c1cc(O)c(O)c(O)c1 [EGCG, Epigallocatechin gallate]",5.85,< 5.00,< 5.00,< 5.00,–,–
"Cc1ccc(C(=O)Nc2c[nH]nc2C(=O)NCCCOC(C)C)cn1 [Compound A, 6-Methyl-N-[3-[[3-(1-methylethoxy)propyl]carbamoyl]-1H-pyrazol-4-yl]pyridine-3-carboxamide]",6.12,–,–,–,< 5.00,8.22
O=C(O)c1ccc2c(c1)nc(Nc1cccc(Cl)c1)c1ccncc12 [CX-4945],–,–,–,–,6.37,5.28
O=c1sn(-c2cccc3ccccc23)c(=O)n1Cc1ccccc1 [Tideglusib],–,–,–,–,< 5.00,< 5.00
O=C1NC(Nc2ccccc2)=N/C1=C\c1ccc2c(c1)OCO2 [Leucettine L41],–,5.96,7.14,5.85,–,–
COc1ccc2c(c1)[nH]c1c(C)nccc12 [Harmine],–,–,–,–,6.63,< 5.00
Cc1c[nH]c(-c2cnc(NCCNc3ccc(C#N)cn3)nc2-c2ccc(Cl)cc2Cl)n1 [CHIR-99021],–,–,–,–,< 5.00,6.60
CCN1/C(=C/C(C)=O)Sc2ccc(O)cc21 [INDY],–,< 5.00,< 5.00,< 5.00,–,–
CCN1/C(=C/C(C)=O)Sc2ccc(OC)cc21 [TG003],–,< 5.00,< 5.00,< 5.00,–,–
